{"source": "patent US10343985B2", "about": "“Cryopyrin inhibitors for preventing and treating inflammation” (VIRGINIA COMMONWEALTH UNIVERSITY, priority 2013, dated 2019)", "key": {"[1]": {"system": "insulin", "settings": "Lamkanfi et al. 2009; cited from earlier work"}, "[2]": {"target": "NLRP3 inflammasome (Homo sapiens, UniProt Q96P20)", "sequence (Q96P20 whole entry)": "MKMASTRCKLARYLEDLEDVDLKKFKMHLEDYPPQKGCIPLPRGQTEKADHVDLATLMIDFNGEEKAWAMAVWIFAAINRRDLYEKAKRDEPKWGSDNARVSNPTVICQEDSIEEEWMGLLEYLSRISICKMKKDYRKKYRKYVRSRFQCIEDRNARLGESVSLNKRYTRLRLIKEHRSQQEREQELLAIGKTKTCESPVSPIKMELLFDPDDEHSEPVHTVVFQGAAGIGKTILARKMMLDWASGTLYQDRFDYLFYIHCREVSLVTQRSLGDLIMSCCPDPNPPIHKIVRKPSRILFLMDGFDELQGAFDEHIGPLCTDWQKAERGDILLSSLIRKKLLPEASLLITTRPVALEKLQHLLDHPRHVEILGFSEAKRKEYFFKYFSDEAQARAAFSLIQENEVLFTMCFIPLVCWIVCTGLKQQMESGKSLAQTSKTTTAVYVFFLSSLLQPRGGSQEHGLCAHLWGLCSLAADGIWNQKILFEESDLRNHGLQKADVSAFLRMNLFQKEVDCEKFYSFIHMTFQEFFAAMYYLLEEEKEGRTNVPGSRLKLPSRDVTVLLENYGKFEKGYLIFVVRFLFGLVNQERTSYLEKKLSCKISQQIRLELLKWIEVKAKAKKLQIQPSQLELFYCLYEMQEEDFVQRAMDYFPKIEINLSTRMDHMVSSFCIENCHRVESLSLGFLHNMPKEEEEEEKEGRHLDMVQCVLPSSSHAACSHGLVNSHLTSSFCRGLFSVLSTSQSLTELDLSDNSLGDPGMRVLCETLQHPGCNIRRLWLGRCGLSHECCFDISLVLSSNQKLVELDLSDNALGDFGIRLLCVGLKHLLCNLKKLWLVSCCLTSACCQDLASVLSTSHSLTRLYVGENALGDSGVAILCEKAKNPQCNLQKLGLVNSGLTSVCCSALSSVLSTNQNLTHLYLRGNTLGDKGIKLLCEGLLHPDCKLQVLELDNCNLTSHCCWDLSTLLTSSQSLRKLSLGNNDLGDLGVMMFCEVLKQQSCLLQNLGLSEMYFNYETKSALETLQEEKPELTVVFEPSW", "settings": "literature reports, cited from earlier work"}, "[3]": {"target": "T1, NLRP3 inflammasome (Mus musculus, UniProt Q8R4B8)", "T1 sequence (Q8R4B8 whole entry, the tested form may be a part)": "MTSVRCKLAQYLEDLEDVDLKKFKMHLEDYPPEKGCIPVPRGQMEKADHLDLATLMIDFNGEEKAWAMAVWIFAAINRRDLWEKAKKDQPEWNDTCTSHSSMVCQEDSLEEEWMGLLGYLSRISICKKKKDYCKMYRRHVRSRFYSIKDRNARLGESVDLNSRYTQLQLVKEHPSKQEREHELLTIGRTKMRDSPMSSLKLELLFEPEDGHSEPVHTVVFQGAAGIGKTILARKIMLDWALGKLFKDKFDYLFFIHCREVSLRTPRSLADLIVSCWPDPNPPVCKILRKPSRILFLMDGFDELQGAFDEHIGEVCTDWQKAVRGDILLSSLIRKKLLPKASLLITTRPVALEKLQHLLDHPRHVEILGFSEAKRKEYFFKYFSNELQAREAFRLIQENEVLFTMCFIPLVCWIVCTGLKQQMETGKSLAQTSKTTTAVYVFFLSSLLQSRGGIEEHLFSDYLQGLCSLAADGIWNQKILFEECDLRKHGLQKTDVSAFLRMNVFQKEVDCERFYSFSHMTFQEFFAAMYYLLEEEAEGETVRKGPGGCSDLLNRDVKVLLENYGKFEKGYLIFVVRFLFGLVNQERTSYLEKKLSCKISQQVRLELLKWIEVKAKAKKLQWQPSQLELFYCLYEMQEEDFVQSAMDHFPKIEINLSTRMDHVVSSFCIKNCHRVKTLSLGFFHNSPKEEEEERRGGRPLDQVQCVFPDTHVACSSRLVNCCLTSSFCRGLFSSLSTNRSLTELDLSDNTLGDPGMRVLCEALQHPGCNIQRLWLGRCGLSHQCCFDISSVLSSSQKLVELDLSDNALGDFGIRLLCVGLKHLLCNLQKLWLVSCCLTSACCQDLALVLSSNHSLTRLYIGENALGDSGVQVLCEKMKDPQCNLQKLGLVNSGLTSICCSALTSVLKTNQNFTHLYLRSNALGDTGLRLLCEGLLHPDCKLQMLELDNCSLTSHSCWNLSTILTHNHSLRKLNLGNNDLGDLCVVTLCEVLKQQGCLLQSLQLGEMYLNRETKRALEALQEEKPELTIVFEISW", "experiment": "Acute myocardial infarction, single i.p. dose at reperfusion, infarct size (TTC)", "type": "in vivo", "set-up": "from tissue; host or cells: live mice: heart (infarction and doxorubicin models) and peritoneal cavity (zymosan A)", "settings": "experiment with G1; 100 mg/kg i.p. at reperfusion; 24 hours; vs vehicle", "description": "Experimental AMI was induced in mice by transient myocardial ischemia for 30 min followed by 24 hours of reperfusion. […] The heart were explanted at 24 hours and processed for the measurement of infarct size using triphenyl tetrazolium chloride (TTC staining). The areas of infarcted tissue, the risk zone, and the whole LV areas are determined by computer morphometry using Image Pro® Plus 6.0 software (Media Cybernetics, Silver Spring, Md.).\nAs described above, experimental AMI was induced by transient myocardial ischemia for 30 min followed by 24 hours of reperfusion."}, "[4]": {"system": "healthy mice", "experiment": "Toxic effects and glucose levels in healthy control mice"}, "[5]": {"target": "T1, NLRP3 inflammasome", "experiment": "Cell death in HL-1 cardiomyocytes (trypan blue exclusion)", "type": "cell-based, murine", "set-up": "immortalized adult murine cardiomyocytes (HL-1) cells were used; endogenous in cells; host or cells: HL-1 murine cardiomyocytes"}, "[6]": {"target": "T1, NLRP3 inflammasome", "experiment": "Caspase-1 enzymatic activity in HL-1 cardiomyocytes", "type": "cell-based, murine", "set-up": "immortalized adult murine cardiomyocytes (HL-1) cells were used; endogenous in cells; host or cells: HL-1 murine cardiomyocytes", "settings": "LPS/ATP, compound 400 μM", "description": "In separate experiments, immortalized adult murine cardiomyocytes (HL-1) cells were used. […] Formation of the NLRP3 inflammasome in HL-1 cells was determined and quantified by ASC aggregation (immunohistochemistry), caspase-1 activity (enzymatic activity) and cell death (trypan blue exclusion method), as previously described. […] As readout for the NLRP3 inflammasome activation, caspase-1 enzymatic activity and cell death were evaluated. Briefly, HL-1 cells (2×10^6 cells) were plated in 90-mm dishes and NLRP3 inflammasome formation was induced as described above. After treatments, to measure caspase-1 activity, the cells were washed, harvested, and frozen. The pellet was resuspended using RIPA buffer (Sigma-Aldrich) containing a mixture of protease inhibitors (Sigma-Aldrich) and centrifuged at 16,200×g for 20 min. The supernatants were collected and the protein contents were quantified using the Bradford assay. The caspase-1 activity was determined by measuring the fluorescence produced by the cleavage of a fluorogenic substrate. The fluorescence was reported as arbitrary fluorescence units produced by 1 μg of sample per min (fluorescence/μg/min)."}}, "note": "Where two headings read alike, the source gives them in different places."}
{"smiles": "COc1ccc(Cl)cc1C(=O)NCCc1ccc(S(=O)(=O)Cl)cc1", "note": "[Compound G1, 4-(2-[(5-chloro-2-methoxyphenyl)formamido]ethyl)benzene-1-sulfonyl chloride]", "values": [{"measurement": "effect on insulin", "setting": "[1]", "value": "no effect"}, {"measurement": "inhibition of cryopyrin / NLRP3 inflammasome in vitro", "setting": "[2]", "value": "inhibited"}, {"measurement": "inhibition of cryopyrin / NLRP3 inflammasome in vitro", "setting": "[2]; listed as compound 1", "value": "retain some of the anti-inflammatory activity of glyburide"}, {"measurement": "infarct size (% area at risk)", "setting": "[3]", "value": "no effect"}]}
{"smiles": "COc1ccc(Cl)cc1C(=O)NCCc1ccc(S(=O)(=O)NC(=O)NC2CCCCC2)cc1", "note": "[glyburide]", "values": [{"measurement": "lethal within 3 days, share of mice", "setting": "[4]; 100 mg/kg every 6 hours for 3 doses", "value": 50, "unit": "%"}, {"measurement": "glucose levels 2 hours after a single dose", "setting": "[4]; 16673-34-0 100 mg/kg, (equimolar)", "value": "significant reduction"}, {"measurement": "lethal in 3 days, share of mice", "setting": "[4]; daily doses of 500 mg/kg", "value": 100, "unit": "%"}, {"measurement": "mortality in healthy mice", "setting": "[4]; every 6 hours for 24 hours, 16673-34-0 100 mg/kg", "value": 50, "unit": "%"}, {"measurement": "plasma glucose levels", "setting": "[4]; healthy mice, single and repeated injections, glyburide effect as early as 2 hours", "value": "significant reduction"}]}
{"smiles": "COc1ccc(Cl)cc1C(=O)NCCc1ccccc1", "note": "[Compound 6 in FIG. 3, 5-chloro-2-methoxy-N-(2-phenylethyl)-benzamide]", "values": [{"measurement": "cell death", "setting": "[5]", "value": "failed"}, {"measurement": "cell death", "setting": "[5]; HL-1, LPS/ATP, compound 400 μM", "value": "no inhibitory effects"}, {"measurement": "caspase-1 activity", "setting": "[6]", "value": "failed to inhibit"}, {"measurement": "caspase-1 activity", "setting": "[6]; listed as intermediate compound", "value": "no inhibitory effects"}]}
